Measurements reported in patent publication US9023844B2, “Heterocyclylpyri (mi) dinylpyrazole as fungicidals” (Bayer Intellectual Property GmbH, priority 2011, dated 2015).
Like-named read-outs stand apart in the source and are kept apart here.

Experiment: Determination of log P values by HPLC on a reverse phase column (C18), EEC-Directive 79/831 Annex V.A8 (Methods A, B, C)
Assay type: physicochemical
Conditions: for chromatographic logP: reverse phase C18 HPLC column
Method: (§1) Note on the determination of the log P values and mass detection: The stated log P values were determined in accordance with EEC-Directive 79/831 Annex V.A8 by HPLC (High Performance Liquid Chromatography) on a reverse phase column (C18). Agilent 1100 LC system; 50*4.6 Zorbax Eclipse Plus C18 1.8 micron; eluent A: acetonitrile (0.1% formic acid); eluent B: water (0.09% formic acid); linear gradient from 10% acetonitrile to 95% acetonitrile in 4.25 mins, then 95% acetonitrile for a further 1.25 mins; oven temperature 55° C.; flow rate: 2.0 mL/min. The mass detection was effected with an Agilend MSD system.
as §1, with “HP1100;” for “Agilent 1100 LC system;”, “(0.08%” for “(0.09%”, “5%” for “10%”, “1.70 min,” for “4.25 mins,”, “1.00 min;” for “1.25 mins;”, “the Micronass ZQ2000 mass detector from Waters.” for “an Agilend MSD system.”
Note on the determination of the log P values and mass detection: The stated log P values were determined in accordance with EEC-Directive 79/831 Annex V.A8 by UPLC (Ultra Performance Liquid Chromatography) on a reverse phase column (C18). HP1100; 50*2.1 Zorbax Eclipse Plus C18 1.8 micron; eluent A: acetonitrile (0.09% formic acid); eluent B: water (0.1% formic acid); linear gradient from 10% A to 95% A in 3.25 min; oven temperature 40° C.; flow rate: 0.8 mL/min. The mass detection was effected with the LCT Premier or SQD mass detector from Waters.

[1] = pH 2.3, intermediates of formula [IV] and [XXXVII], HPLC, reverse phase C18, read-out: LogP (pH 2.3)
[2] = pH 2.7, values in the synthesis examples, HPLC, reverse phase C18, read-out: log P (pH 2.7)
[3] = Method B (HPLC, reverse phase C18)
[4] = Method C (HPLC, reverse phase C18), read-out: LogP
[5] = Method C (HPLC, reverse phase C18)
[6] = pH 2.3, intermediates of formula [II], HPLC, reverse phase C18, read-out: LogP (pH 2.3)

C[C@@H]1C[C@@H](C)n2nc(-c3ccc(F)cc3)c(Br)c2O1 (racemic) [[IV-9a], rac-trans-3-bromo-2-(4-fluorophenyl)-5,7-dimethyl-6,7-dihydro-5H-pyrazolo[5,1-b][1,3]oxazine]
chromatographic logP [1]: 3.91
chromatographic logP [2]: 3.91

C[C@@H]1C[C@H](C)n2nc(-c3ccc(F)cc3)c(Br)c2O1 (racemic) [[IV-9b], rac-cis-3-bromo-2-(4-fluorophenyl)-5,7-dimethyl-6,7-dihydro-5H-pyrazolo[5,1-b][1,3]oxazine]
chromatographic logP [1]: 3.68
chromatographic logP [2]: 3.68

O=C(Nc1cc(-c2c(-c3ccc(F)cc3F)nn3c2OCCC3)ccn1)C1(Cl)CC1 [Example 50]
LogP [3]: 2.84

CC(=O)N1CCCn2nc(-c3ccccc3)c(-c3ccnc(N(C(C)=O)C(C)=O)c3)c21 [Example 58, N-acetyl-N-[4-(4-acetyl-2-phenyl-4,5,6,7-tetrahydropyrazolo[1,5-a]pyrimidin-3-yl)pyridin-2-yl]acetamide]
chromatographic logP [4]: 1.72
chromatographic logP [2]: 1.72

CC(=O)Nc1cc(-c2c(-c3ccc(F)cc3)nn3cccnc23)ccn1 [Example 60, N-{4-[2-(4-Fluorophenyl)pyrazolo[1,5-a]pyrimidin-3-yl]pyridin-2-yl}acetamide]
chromatographic logP [4]: 1.47
chromatographic logP [2]: 1.47

CCCC(CCC)C(=O)Nc1cc(-c2c(-c3ccc(F)cc3)nn3c2OCCC3)ccn1 [Example 67]
LogP [3]: 2.64

O=C(Nc1cc(-c2c(-c3ccc(F)cc3)nn3c2OCCC3)ccn1)c1c(F)cccc1F [Example 71]
LogP [3]: 2.43

CCC(=O)Nc1cc(-c2c(-c3ccccc3)nn3c2N(C(=O)CC)CCC3)ccn1 [Example 78]
LogP [5]: 1.45

C[Si]1(C)COc2c(-c3ccnc(NC(=O)C4CC4)c3)c(-c3cccs3)nn2C1 [Example 87]
LogP [5]: 2.08

CCC(=O)N1CCCn2nc(-c3ccc(F)cc3)c(-c3ccnc(N(C(C)=O)C(=O)CC)c3)c21 [Example 90]
LogP [5]: 2.39

CCC(=O)Nc1cc(-c2c(-c3ccc(F)cc3)nn3c2N(C(=O)CC)CCC3)ccn1 [Example 91]
LogP [5]: 1.62

CCC(=O)N(C)c1cc(-c2c(-c3ccc(F)cc3)nn3c2N(C(=O)CC)CCC3)ccn1 [Example 93]
LogP [5]: 2.05

CC(=O)Nc1cc(-c2c(-c3ccc(F)cc3)nn3c2N(C(C)=O)CCC3)ccn1 [Example 94]
LogP [5]: 1.26

CCN1CCCn2nc(-c3ccc(F)cc3)c(-c3ccnc(NCc4ccccc4)c3)c21 [Example 97]
LogP [5]: 1.86

CC1(C(=O)Nc2cc(-c3c(-c4ccc(F)cc4)nn4c3OCCC4)ccn2)CC1 [Example 98]
LogP [3]: 1.79

CC(=O)CCCC(=O)Nc1cc(-c2c(-c3ccc(F)cc3)nn3c2OCCC3)ccn1 [Example 99]
LogP [3]: 1.35

CC(C)C(=O)Nc1cc(-c2c(-c3ccc(F)cc3)nn3c2OCC(C)(C#N)C3)ccn1 (stereo not shown) [Example 107]
LogP [5]: 1.94

CC1(C)COc2c(-c3ccnc(NC(=O)C4CC4)c3)c(-c3ccc(F)cc3)nn2C1 [Example 108]
LogP [5]: 2.08

CC(=O)Nc1cc(-c2c(-c3ccc(F)cc3)nn3c2OCC(C)(C)C3)ccn1 [Example 109]
LogP [5]: 1.75

CCC(=O)Nc1cc(-c2c(-c3ccc(F)cc3)nn3c2OCC(C)(C)C3)ccn1 [Example 110]
LogP [5]: 2.00

CC(C)C(=O)Nc1cc(-c2c(-c3ccc(F)cc3)nn3c2OCC(C)(C)C3)ccn1 [Example 111]
LogP [5]: 2.23

O=C1CCC(C(=O)Nc2cc(-c3c(-c4ccc(F)cc4)nn4c3OCCC4)ccn2)C1 (stereo not shown) [Example 112]
LogP [3]: 1.38

CC(F)C(=O)Nc1cc(-c2c(-c3ccc(F)cc3)nn3c2OCCC3)ccn1 (stereo not shown) [Example 113, 2-fluoro-N-{4-[2-(4-fluorophenyl)-6,7-dihydro-5H-pyrazolo[5,1-b][1,3]oxazin-3-yl]pyridin-2-yl}propanamide]
chromatographic logP (Method B (HPLC, reverse phase C18), read-out: LogP): 2
chromatographic logP [2]: 2

O=C(Nc1cc(-c2c(-c3ccc(F)cc3)nn3c2OCCC3)ccn1)c1cncc(F)c1 [Example 114]
LogP [3]: 1.96

CC(C)(F)C(=O)Nc1cc(-c2c(-c3ccc(F)cc3)nn3c2OCCC3)ccn1 [Example 115]
LogP [3]: 2.38

O=C(Nc1cc(-c2c(-c3ccc(F)cc3)nn3c2OCCC3)ccn1)C1CC1(F)Cl (stereo not shown) [Example 116]
LogP [3]: 2.13

CC1(C(=O)Nc2cc(-c3c(-c4ccc(F)cc4)nn4c3OCCC4)ccn2)CCCC1 [Example 117]
LogP [3]: 2.23

CC1(C(=O)Nc2cc(-c3c(-c4ccc(F)cc4)nn4c3OCCC4)ccn2)COCOC1 [Example 118]
LogP [3]: 1.86

CCC1(C(=O)Nc2cc(-c3c(-c4ccc(F)cc4)nn4c3OCCC4)ccn2)COC1 [Example 119]
LogP [3]: 1.56

N#CC1(C(=O)Nc2cc(-c3c(-c4ccc(F)cc4)nn4c3OCCC4)ccn2)CC1 [Example 120]
LogP [3]: 2.13

CC1(C(=O)Nc2cc(-c3c(-c4ccc(F)cc4)nn4c3OCCC4)ccn2)CC=CCC1 (stereo not shown) [Example 121]
LogP [3]: 2.38

CC(C)=NOCC(=O)Nc1cc(-c2c(-c3ccc(F)cc3)nn3c2OCCC3)ccn1 [Example 122]
LogP [3]: 2.13

O=C(Cn1cccn1)Nc1cc(-c2c(-c3ccc(F)cc3)nn3c2OCCC3)ccn1 [Example 123]
LogP [3]: 1.63

O=C(CC1CCCOC1)Nc1cc(-c2c(-c3ccc(F)cc3)nn3c2OCCC3)ccn1 (stereo not shown) [Example 124]
LogP [3]: 1.57

O=C(Nc1cc(-c2c(-c3ccc(F)cc3)nn3c2OCCC3)ccn1)C1CC=CC1 [Example 125]
LogP [3]: 1.76

Cc1occc1C(=O)Nc1cc(-c2c(-c3ccc(F)cc3)nn3c2OCCC3)ccn1 [Example 126]
LogP [3]: 1.96

CCC(C)CC(C)C(=O)Nc1cc(-c2c(-c3ccc(F)cc3)nn3c2OCCC3)ccn1 (stereo not shown) [Example 127]
LogP [3]: 2.65

O=C(Nc1cc(-c2c(-c3ccc(F)cc3)nn3c2OCCC3)ccn1)C1CCSCC1 [Example 128]
LogP [3]: 1.83

O=C(Nc1cc(-c2c(-c3ccc(F)cc3)nn3c2OCCC3)ccn1)C1(C2CC2)CC1 [Example 129]
LogP [3]: 2.46

O=C(Nc1cc(-c2c(-c3ccc(F)cc3)nn3c2OCCC3)ccn1)c1ccc(F)s1 [Example 130]
LogP [3]: 2.42

CC[C@H](C)CC(=O)Nc1cc(-c2c(-c3ccc(F)cc3)nn3c2OCCC3)ccn1 [Example 131]
LogP [3]: 2.1

O=C(CCn1ccnn1)Nc1cc(-c2c(-c3ccc(F)cc3)nn3c2OCCC3)ccn1 [Example 133]
LogP [3]: 1.23

Cc1cc(C(=O)Nc2cc(-c3c(-c4ccc(F)cc4)nn4c3OCCC4)ccn2)no1 [Example 134]
LogP [3]: 2.53

Cc1noc(C)c1C(=O)Nc1cc(-c2c(-c3ccc(F)cc3)nn3c2OCCC3)ccn1 [Example 135]
LogP [3]: 2.06

CC(C)=NOC(C)C(=O)Nc1cc(-c2c(-c3ccc(F)cc3)nn3c2OCCC3)ccn1 (stereo not shown) [Example 136]
LogP [3]: 2.34

O=C(Cn1cncn1)Nc1cc(-c2c(-c3ccc(F)cc3)nn3c2OCCC3)ccn1 [Example 137]
LogP [3]: 1.32

CC(C)[C@H](NC=O)C(=O)Nc1cc(-c2c(-c3ccc(F)cc3)nn3c2OCCC3)ccn1 [Example 138]
LogP [3]: 1.6

O=C(CC1=CCCCC1)Nc1cc(-c2c(-c3ccc(F)cc3)nn3c2OCCC3)ccn1 [Example 139]
LogP [3]: 2.46

CC(C)(C)OC(=O)Nc1cc(-c2c(-c3ccccc3)nn3cccnc23)ccn1 [[I-i-2], tert-butyl [4-(2-phenylpyrazolo[1,5-a]pyrimidin-3-yl)pyridin-2-yl]carbamate]
chromatographic logP [2]: 2.32

Nc1cc(-c2c(-c3ccccc3)nn3c2OCCC3)ccn1 [[II-1], 4-(2-phenyl-6,7-dihydro-5H-pyrazolo[5,1-b][1,3]oxazin-3-yl)pyridin-2-amine]
chromatographic logP [6]: 0.87
chromatographic logP [2]: 0.87

Nc1cc(-c2c(-c3ccc(F)cc3)nn3c2OCCC3)ccn1 [[II-2], 4-[2-(4-fluorophenyl)-6,7-dihydro-5H-pyrazolo[5,1-b][1,3]oxazin-3-yl]pyridin-2-amine]
chromatographic logP [6]: 0.95
chromatographic logP [2]: 0.95

Nc1cc(-c2c(-c3ccc(F)cc3F)nn3c2OCCC3)ccn1 [[II-3], 4-[2-(2,4-difluorophenyl)-6,7-dihydro-5H-pyrazolo[5,1-b][1,3]oxazin-3-yl]pyridin-2-amine]
chromatographic logP [6]: 1.01
chromatographic logP [2]: 1.01

C[Si]1(C)COc2c(-c3ccnc(N)c3)c(-c3ccc(F)cc3)nn2C1 [[II-4], 4-[7-(4-fluorophenyl)-3,3-dimethyl-3,4-dihydro-2H-pyrazolo[5,1-b][1,3,5]oxazasilin-8-yl]pyridin-2-amine]
chromatographic logP [6]: 1.66
